# Test results as given in patent US10561638B2, “Methods for treating dependence” (Biotie Therapies, Inc., priority 2007, dated 2020).
# “Also recorded” adds a separate entry of the source.
# Tests used:
# SHRs = assay: 21 day daily treatment of SHRs, tail cuff and direct blood pressure; type: in vivo, spontaneously hypertensive rats
# [1] = tested on: MPTP-lesioned squirrel monkey; assay: MPTP-lesioned squirrel monkey Parkinsonian model; type: in vivo, squirrel monkeys
# Description: Twenty four squirrel monkeys, fourteen females and ten males were used in a Parkinsonian model. The twenty-four animals were randomly assigned to one of four treatment groups, with 6 animals per group. The groups consisted of the following: Group A (6 animals) received placebo (water) treatment; Group B (5 animals) received drug nepicastat at 1 mg/kg/day (0.5 mg/kg twice daily); Group C (6 animals) received 4 mg/kg/day (2 mg/kg twice daily); and Group D (6 animals) received 10 mg/kg/day (5 mg/kg twice daily). In Group B, one animal died acutely following MPTP-lesioning, and was not replaced.
# Prior to lesioning, animals were subjected to quantitative assessment of spontaneous motor activity using an infrared activity monitor (IRAM) cage. All recording sessions were 60 minutes in length and were carried out for 10 sessions over a period of 2 weeks. The behavior of animals was also assessed by 1 to 3 clinical raters using a parkinsonian clinical rating scale (CRS) once per day (12 noon to 1 pm) for 3 to 5 consecutive days. […] Both the activity monitoring (IRAM) and clinical rating assessments established the mean base-line activity of each animal.
# Animals were lesioned by the administration of MPTP at a concentration of 2.0 mg/kg (free-base) via subcutaneous injection to achieve a parkinsonian state. A post-MPTP lesioning behavioral assessment was carried out 2 to 4 weeks after the last MPTP-lesioning. Locomotor activity was monitored by IRAM in 60-minute sessions for 3 to 5 days. Clinical behavior (CAS) was assessed by one to three individuals rating over a period of 3 to 5 days.
# Animals were tested for response to L-Dopa and the efficacy of drug nepicastat. Testing was carried out 4 to 12 weeks after the last MPTP dose. L-Dopa was administered at a concentration of either 2.5, 5, or 7.5 mg/kg by oral gavage twice daily (at 10 am and 2 pm) for 7 consecutive days. Behavior was determined by IRAM and CRS. Clinical rating was carried out 60 to 90 minutes following the 10 am morning dose on the last 4 days of treatment. Raters (one to three individuals) were blinded to the different treatment groups. IRAM assessment were preformed for 90 minutes immediately following drug administration at 2 pm on the last 2 to 5 days of drug treatment. There was a minimum 2 day washout period between each treatment dose.
# Nepicastat or water (as placebo) was administered for 12 days following a minimum 2 day washout after L-Dopa dosing. Drug was administered twice daily at 10 am and 2 pm by oral gavage. Behavior was rated by IRAM and CRS. The CRS was conducted in the morning, 60 to 90 minutes after the 10 am dose of nepicastat on the last 5 days of drug treatment. Raters (one to three individuals) were blinded to the different treatment groups. IRAM assessments were preformed for 90 minutes immediately following drug administration at 2 pm on the last 5 days of drug treatment.
# Eight parkinsonian features were rated in each animal and the total score was derived from the sum of these eight features. For each animal, a single clinical rating score was obtained for each drug dose by averaging the clinical rating scores of all raters (one to three) conducted over the consecutive multiple dosing (with the same dose) days. This average CRS was used for statistical analysis. A lower score was considered a less parkinsonian behavioral state.
# Statistical analysis consisted of: (1) comparisons between the average CRS of placebo to nepicastat at 1, 4, and 10 mg/kg/day using the Kruskal-Wallis (non-parametric analysis of variance). This comparison was repeated using the average CRS for each experimental drug concentration corrected by the final post-MPTP ratings for each animal. The corrected clinical scores are clinical scores of experimental drug at each concentration as a ratio of post-MPTP clinical scores. […]
# normal dogs = assay: Cardiovascular effects of i.v. dosing in dogs; type: in vivo; conditions: anesthetized dogs, 1-10 mg/kg i.v., up to five hours
# anesthetized SHRs = assay: Acute i.v. treatment of anesthetized SHRs, blood pressure and renal function; type: in vivo, spontaneously hypertensive rats; conditions: 3.0 mg/kg i.v.
# Excerpt: The calculated renal vascular resistance was decreased following dosing. An attempt was made using the DA-1 antagonist SCH-23390 to assess if the renal vasodilator effects of nepicastat were mediated by DA-1 receptors.
smiles,measurement,setting,value
"Cl.NCc1c[nH]c(=S)n1[C@H]1CCc2c(F)cc(F)cc2C1 [nepicastat, (S)-5-Aminomethyl-1-(5,7-difluoro-1,2,3,4-tetrahydronaphth-2-yl)-2,3-dihydro-2-thioxo-1H-imidazole hydrochloride]","blood pressure measured directly via arterial cannulae, restrained",SHRs; 10 mg/kg p.o.,significant antihypertensive effect
same,heart rate and systolic blood pressure by tail cuff,"SHRs; 1 and 10 mg/kg p.o., 21 days","did not alter heart rate, or systolic blood pressure"
same,activity monitoring (IRAM) vs placebo,[1]; 1 mg/kg/day,slower than placebo treatment
same,parkinsonian clinical rating vs placebo,"[1]; 1, 4, 10 mg/kg/day, 12 days, hydrochloride",no detectable differences; also recorded: no significant effect in parkinsonian symptoms compared to placebo
same,activity monitoring (IRAM) vs placebo,[1]; 4 and 10 mg/kg/day,no difference
same,parkinsonian clinical rating vs post-MPTP (pre-treatment) state,"[1]; nepicastat 4 and 10 mg/kg/day, hydrochloride",significant improvement over the post-MPTP (pre-treatment) state; also recorded: significant effect in parkinsonian symptoms compared to post-MPTP lesioning
same,cardiovascular effects,normal dogs,no cardiovascular effects
same,calculated renal vascular resistance,anesthetized SHRs,decreased
same,"renal blood flow, urine production, sodium and potassium excretion",anesthetized SHRs,did not lower renal blood flow or alter urine production or urinary excretion of sodium or potassium
same,mean arterial pressure,anesthetized SHRs; over 3 hours,decreased mean arterial pressure
